# From US20140357512A1, “HISTONE DEACETYLASE (HDAC) BIOMARKERS IN MULTIPLE MYELOMA” (priority 2013, published 2014)
# System: human myeloma cell line MM.1S
# Assay: SILAC acetylated-lysine peptide profiling, HDAC inhibitor vs DMSO (light/heavy ratio)
# Format: cell-based
# Excerpt: An embodiment of the invention comprises utilizing the SILAC method in order to quantitate changes in protein expression between two or more populations of cells. The SILAC method is a technique based on mass spectrometry that detects differences in protein abundance among samples using non-radioactive isotopic labeling. The SILAC method is known in the art, and described in detail in Ong et al., “Stable Isotope Labeling by Amino Acids in Cell Culture, SILAC, as a Simple and Accurate Approach to Expression Proteomics”, Molecular & Cellular Proteomics, vol. 1, pp. 376-386 (2002), which is incorporated herein by reference in its entirety.
# Briefly, the SILAC method involves growing two populations of cells in cell culture. The first population of cells is grown in growth media containing normal amino acids (“normal media”). The second population of cells is grown in media lacking a standard essential amino acid (such as lysine), but is then supplemented with a non-radioactive, isotopically labeled form of that essential amino acid (such as lysine labeled with ^13C atoms, rather than normal ^12C atoms), which is called “heavy media”. When the two populations of cells are each growing in the medium, they incorporate the amino acids into all of their proteins. The growth of cells maintained in the heavy media is no different from that in normal media. All peptides containing the heavy amino acids are heavier than their normal counterparts. The cells from each of the two populations of cells are lysed. The lysates from each of the two cell populations are then combined. The combined cell lysates are then analyzed by mass spectrometry. Pairs of chemically identical peptides of different stable isotope composition can be differentiated in a mass spectrometer due to their difference in mass. The ratio of peak intensities in the mass spectrum for such peptide pairs reflects the abundance ratio for the two proteins.
# This example describes SILAC studies that were performed to compare the effects of three different HDAC inhibitors (Compound A, Compound B, and tubastatin A) to a control on a human multiple myeloma cell line. The HDAC inhibitors were also compared amongst themselves to determine differences in their effects.
# A human myeloma cell line MM.1S was grown using either ^12C (light) or ^13C (heavy) lysine containing culture medium. The “heavy” cells were treated with DMSO as the control, and the “light” cells were treated with a single HDAC inhibitor at 37° C. for 6 hours. The heavy and light cells were lysed, and the lysates were mixed in 1:1 ratio and digested with the protease trypsin. The acetylated lysine containing peptides (due to the action of the HDAC inhibitor) in the digested peptide pool were captured by a non-specific anti-acetylated lysine antibody cocktail (the antibodies identify both light and heavy acetylated peptides), and subjected to mass spectrometry analysis in order to identify thousands of individual peptides.
# Thousands of peptides were identified in pairs (^12C and ^13C) due to their known mass differences. The amino acid sequence and quantitative ratio (Light/Heavy) of a given peptide in two differentially treated cell lysates were then determined and annotated with their possible protein (gene) sources.
# As stated above, three HDAC inhibitors (Compound A, Compound B, and Tubastatin A) were used. Thus, the SILAC method was performed three times, with a different HDAC inhibitor compared to a control each time. Accordingly, there are three pairs of quantitative data in the table below, i.e., Compound A:DMSO, Compound B:DMSO, and Tubastatin A:DMSO. A cut-off of 1.30 fold of change (increase or decrease) was then used to determine “changed” or “+” in the table, and any peptides with a fold of change less than 1.3 fold were determined to be “unchanged” or “0” in the table. Those peptides that were not identified were marked as “NA” in the table. […]
compound,measurement,setting,value
"O=C(CCCCCCNC(=O)c1cnc(N(c2ccccc2)c2ccccc2)nc1)NO [Compound A, 2-(diphenylamino)-N-(7-(hydroxyamino)-7-oxoheptyl)pyrimidine-5-carboxamide]","light to heavy ratio (L/H ratio), log 2 scale, acetylated peptide PEPAK(ac)SAPAPKK (SEQ ID NO: 795)","Histone H2B type 2-E [6], gene HIST2H2BE, drug:DMSO",1.00
same,"light to heavy ratio (L/H ratio), log 2 scale, acetylated peptide K(ac)AVTK(ac)AQK (SEQ ID NO: 794)","Histone H2B type 2-E [17:21], gene HIST2H2BE, drug:DMSO",1.00
same,light to heavy ratio (L/H ratio) of acetylated peptide AVTK(ac)AQK(ac)K (SEQ ID NO: 560),"Histone H2B type 2-E [21:24], gene HIST2H2BE, inhibitor:DMSO",0.40 log 2
same,light to heavy ratio (L/H ratio) of acetylated peptide K(ac)STGGK(ac)APR (SEQ ID NO: 310),"Histone H3.2 [10:15], HIST2H3D, HIST2H3A, HIST2H3C, drug:DMSO",1.00 log 2
same,"light to heavy ratio (L/H ratio), log 2 scale, acetylated peptide K(ac)QLATK(ac)AAR (SEQ ID NO: 796)","Histone H3.2 [19:24], gene HIST2H3D, HIST2H3A, HIST2H3C, drug:DMSO",1.00
same,light to heavy ratio (L/H ratio) of acetylated peptide GK(ac)GGK(ac)GLGK (SEQ ID NO: 311),"Histone H4 [6:9], HIST2H4B, HIST1H4C and other H4 genes, drug:DMSO",1.00 log 2
same,light to heavy ratio (L/H ratio) of acetylated peptide GLGK(ac)GGAK(ac)R (SEQ ID NO: 312),"Histone H4 [13:17], HIST2H4B, HIST1H4C and other H4 genes, drug:DMSO",1.00 log 2
same,light to heavy ratio (L/H ratio) of acetylated peptide GLGK(ac)GGAKR (SEQ ID NO: 313),"Histone H4 [13], HIST2H4B, HIST1H4C and other H4 genes, drug:DMSO",1.00 log 2
same,light to heavy ratio (L/H ratio) of acetylated peptide DGLQNEK(ac)NIVSTPVK (SEQ ID NO: 268),"Hydroxymethylglutaryl-CoA lyase mitochondrial [48], HMGCL, drug:DMSO",0.45 log 2
same,light to heavy ratio (L/H ratio) of acetylated peptide K(ac)[…] (SEQ ID NO: 594),"Hydroxymethylglutaryl-CoA lyase mitochondrial [137], gene HMGCL, inhibitor:DMSO",0.45 log 2
same,L/H ratio of acetylated peptide […](ac)SHR (SEQ ID NO: 56),"IGLV2-14, IGLC2 [208], log 2 scale, drug vs DMSO",0.00
same,"light to heavy ratio (L/H ratio) of acetylated peptide, log 2 scale","IGQGYLIK(ac)DGK (SEQ ID NO: 249), 60S ribosomal protein L3 [294], SNORD43, RPL3",−0.44
same,L/H ratio of acetylated peptide,"IK(ac)[…] (SEQ ID NO: 480), Isoform 2 of Heat shock protein HSP 90-alpha [403], HSP90AA1",0.39 log 2
same,L/H ratio of acetylated peptide,"IVQK(ac)[…] (SEQ ID NO: 489), Death-associated protein 1 [29], DAP",1.00 log 2
same,"light to heavy ratio (L/H ratio), log 2 scale, acetylated peptide ADLIK(ac)QYGR (SEQ ID NO: 798)","Inactive hydroxysteroid dehydrogenase-like protein 1 [64], gene HSDL1, drug:DMSO",1.00
same,"light to heavy ratio (L/H ratio), log 2 scale, acetylated peptide LMK(ac)ICMNEDPAK (SEQ ID NO: 800)","Integrin-linked protein kinase [426], gene ILK, drug:DMSO",1.00
same,light to heavy ratio (L/H ratio) of acetylated peptide HAHGDQYK(ac)ATDFVADR (SEQ ID NO: 574),"Isocitrate dehydrogenase [NADP] mitochondrial [180], gene IDH2, inhibitor:DMSO",0.42 log 2
same,light to heavy ratio (L/H ratio) of acetylated peptide AGTFK(ac)MVFTPK (SEQ ID NO: 606),"Isocitrate dehydrogenase [NADP] mitochondrial [193], gene IDH2, inhibitor:DMSO",0.46 log 2
same,light to heavy ratio (L/H ratio) of acetylated peptide TDFDKNK(ac)IWYEHR (SEQ ID NO: 555),"Isocitrate dehydrogenase [NADP] mitochondrial [282], gene IDH2, inhibitor:DMSO",0.40 log 2
same,light to heavy ratio (L/H ratio) of acetylated peptide AVLIDK(ac)DQSPK (SEQ ID NO: 577),"Isoform 1 of 3-hydroxyisobutyryl-CoA hydrolase mitochondrial [353], gene HIBCH, inhibitor:DMSO",0.43 log 2
same,light to heavy ratio (L/H ratio) of acetylated peptide TSSAFVGK(ac)TPEASPEPK (SEQ ID NO: 598),"Isoform 1 of 26S proteasome non-ATPase regulatory subunit 1 [310], gene PSMD1, inhibitor:DMSO",0.46 log 2
same,light to heavy ratio (L/H ratio) of acetylated peptide […](ac)VVQER (SEQ ID NO: 318),"Isoform 1 of 39S ribosomal protein L47 mitochondrial [144], MRPL47, drug:DMSO",1.00 log 2
same,light to heavy ratio (L/H ratio) of acetylated peptide ATVPK(ac)TEIR (SEQ ID NO: 272),"Isoform 1 of 40S ribosomal protein S24 [37], RPS24, drug:DMSO",0.47 log 2
same,light to heavy ratio (L/H ratio) of acetylated peptide AEEILEK(ac)GLK (SEQ ID NO: 547),"Isoform 1 of 60S ribosomal protein L11 [85], gene RPL11, inhibitor:DMSO",0.39 log 2
same,light to heavy ratio (L/H ratio) of acetylated peptide ISK(ac)EEAMR (SEQ ID NO: 299),"Isoform 1 of 60S ribosomal protein L11 [159], RPL11, drug:DMSO",0.84 log 2
same,light to heavy ratio (L/H ratio) of acetylated peptide AGLVDDFEK(ac)K (SEQ ID NO: 301),"Isoform 1 of ATP synthase subunit d mitochondrial [72], ATP5H, drug:DMSO",0.86 log 2
same,light to heavy ratio (L/H ratio) of acetylated peptide VPVPEDK(ac)[…] (SEQ ID NO: 290),"Isoform 1 of ATP synthase subunit d mitochondrial [85], ATP5H, drug:DMSO",0.66 log 2
same,light to heavy ratio (L/H ratio) of acetylated peptide GK(ac)FGNVYLAR (SEQ ID NO: 537),"Isoform 1 of Aurora kinase C [53], gene AURKC, inhibitor:DMSO",−0.39 log 2
same,light to heavy ratio (L/H ratio) of acetylated peptide VWNYK(ac)LR (SEQ ID NO: 593),"Isoform 1 of Coatomer subunit alpha [81], gene COPA, inhibitor:DMSO",0.45 log 2
same,light to heavy ratio (L/H ratio) of acetylated peptide SLLK(ac)PFCAALLK (SEQ ID NO: 329),"Isoform 1 of Cytoskeleton-associated protein 5 [438], CKAP5, drug:DMSO",0.00 log 2
same,light to heavy ratio (L/H ratio) of acetylated peptide VLGTVK(ac)WFNVR (SEQ ID NO: 515),"Isoform 1 of DNA-binding protein A [96], gene CSDA, inhibitor:DMSO",−0.57 log 2
same,light to heavy ratio (L/H ratio) of acetylated peptide TLK(ac)ALEYVFK (SEQ ID NO: 516),"Isoform 1 of Dedicator of cytokinesis protein 2 [738], gene DOCK2, inhibitor:DMSO",−0.57 log 2
same,"light to heavy ratio (L/H ratio), log 2 scale, acetylated peptide VAFK(ac)YCQK (SEQ ID NO: 775)","Isoform 1 of Dolichyl-phosphate beta-glucosyltransferase [122], gene ALG5, drug:DMSO",1.00
same,"light to heavy ratio (L/H ratio), log 2 scale, acetylated peptide ILSK(ac)LSEETK (SEQ ID NO: 759)","Isoform 1 of E3 UFM1-protein ligase 1 [614], gene UFL1, drug:DMSO",0.91
same,"light to heavy ratio (L/H ratio), log 2 scale, acetylated peptide NEEATK(ac)HLECTK (SEQ ID NO: 785)","Isoform 1 of Fragile X mental retardation syndrome-related protein 1 [207], gene FXR1, drug:DMSO",1.00
same,light to heavy ratio (L/H ratio) of acetylated peptide ELEK(ac)VCNPIITK (SEQ ID NO: 612),"Isoform 1 of Heat shock cognate 71 kDa protein [601], gene HSPA8, inhibitor:DMSO",0.47 log 2
